Test: recombinant barcode read abundance after kanamycin selection (control-corrected) (log10(CPM+1)); higher = more efficient recombination; sequences stand for … in AGTGCAGAGAAAATCGGCCAGTTTTCTCTGCCTGCAGTCCGCATGCCGT…AGATTTATGCAGCGGACTGCCTTTCTCCCAAAGTGATAAACCGGACAGTATCATGGACCGGTTTTCCCGGTAATCCGTATTTGCAAGGTTGGTTTCACT; site = the 11-nt target
Summary of the method: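 Recombination efficiency in this pooled E. coli screen uses counts per million of barcodes at recombinant junctions, averaged and corrected against the control. The reported form is log10(CPM+1). Two replicates were plated on chloramphenicol/ampicillin LB agar as control and two on chloramphenicol/ampicillin/kanamycin with 0.1 mM IPTG.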
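Further: IS621 recombinase and bridge RNA in Escherichia coli cells.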

Row | Sequence | recombinant barcode read abundance (log10)
1 | AGGTGTCCTTGGGTTCTAACCTGTTGCTT (site AGGTGTCCTAA) | 1.4
2 | AGGTGTCCTTGGGTTCTAACCTGTTGCTT (site CGGTGTCCTAA) | 0.0102
3 | AGGTTAGCTTGGGTTCTAACCTGTTGCTA (site AGGTTAGCTTA) | 0.0546
4 | AGGTTAGCTTGGGTTCTAACCTGTTGCTA (site GCAAGTACTCT) | 0.538
5 | AGTAACCCTTGGGTTCTAACCTGTTGCCT (site AATAACCCTAG) | 0.0627
6 | AGTAACCCTTGGGTTCTAACCTGTTGCCT (site ACTAACCCTAG) | 0.158
7 | AGTAACCCTTGGGTTCTAACCTGTTGCCT (site AGTAACCCTAG) | 1.22
8 | AGTAACCCTTGGGTTCTAACCTGTTGCCT (site ATTAACCCTAG) | 0.137
9 | AGTAAGACTTGGGTTCTAACCTGTTGCAT (site AGTAAGACTAA) | 0.197
10 | AGTAAGACTTGGGTTCTAACCTGTTGCAT (site AGTAAGACTAC) | 0.0256
11 | AGTAAGACTTGGGTTCTAACCTGTTGCAT (site AGTAAGACTAG) | 0.423
12 | AGTAAGACTTGGGTTCTAACCTGTTGCAT (site AGTAAGACTAT) | 1.41
13 | AGTAAGCCTTGGGTTCTAACCTGTTGCAG (site ACTAAGCCTCC) | 0.133
14 | AGTAAGCCTTGGGTTCTAACCTGTTGCAG (site AGTAAGCCTCT) | 1.12
15 | AGTAAGCCTTGGGTTCTAACCTGTTGCCT (site AGTAAGCCTAG) | 0.864
16 | AGTAAGCCTTGGGTTCTAACCTGTTGCCT (site AGTCAGCCTAG) | 0.243
17 | AGTAAGCCTTGGGTTCTAACCTGTTGCCT (site AGTGAGCCTAG) | 0.187
18 | AGTAAGCCTTGGGTTCTAACCTGTTGCCT (site AGTTAGCCTAG) | 0.173
19 | AGTACGTCTTGGGTTCTAACCTGTTGCTT (site AGTACGTCTAA) | 0.201
20 | AGTACGTCTTGGGTTCTAACCTGTTGCTT (site GTTACGTCTAA) | 0.0179
21 | AGTACTCCTTGGGTTCTAACCTGTTGCTG (site AATACTACTCA) | 0.085
22 | AGTACTCCTTGGGTTCTAACCTGTTGCTG (site AGTACTCCTCA) | 0.172

Row | Sequence | recombinant barcode read abundance (log10)
23 | AGTATAACTTGGGTTCTAACCTGTTGCTG (site AGTATAACTCA) | 0.24
24 | AGTATAACTTGGGTTCTAACCTGTTGCTG (site GTGTACCCTGT) | 0.178
25 | AGTCATTCTTGGGTTCTAACCTGTTGCAT (site AGTCAGTCTAC) | 0.166
26 | AGTCATTCTTGGGTTCTAACCTGTTGCAT (site AGTCATTCTAT) | 0.45
27 | AGTCCCGCTTGGGTTCTAACCTGTTGCCA (site AGTCCCGCTTG) | 1.67
28 | AGTCCCGCTTGGGTTCTAACCTGTTGCCA (site GCATATACTAC) | 0.212
29 | AGTCCTACTTGGGTTCTAACCTGTTGCAG (site AGGCTTACTCT) | 0.234
30 | AGTCCTACTTGGGTTCTAACCTGTTGCAG (site AGTCCTACTCT) | 0.794
31 | AGTCGGACTTGGGTTCTAACCTGTTGCAC (site AGTCGGACTGT) | 0.846
32 | AGTCGGACTTGGGTTCTAACCTGTTGCAC (site CACGATCCTAA) | 0.0668
33 | AGTCTCGCTTGGGTTCTAACCTGTTGCGG (site AGTATCGCTCC) | 0.0167
34 | AGTCTCGCTTGGGTTCTAACCTGTTGCGG (site AGTCTCGCTCC) | 0.345
35 | AGTCTCGCTTGGGTTCTAACCTGTTGCGG (site AGTGTCGCTCC) | 0.0171
36 | AGTCTCGCTTGGGTTCTAACCTGTTGCGG (site AGTTTCGCTCC) | 0.0153
37 | AGTCTCTCTTGGGTTCTAACCTGTTGCCT (site AGTCTCTCTAG) | 0.688
38 | AGTCTCTCTTGGGTTCTAACCTGTTGCCT (site AGTGACTCTAG) | 0.0251
39 | AGTCTCTCTTGGGTTCTAACCTGTTGCTA (site AGTCTCTCTCG) | 0.128
40 | AGTCTCTCTTGGGTTCTAACCTGTTGCTA (site AGTCTCTCTTA) | 1.21
41 | AGTGAAGCTTGGGTTCTAACCTGTTGCAC (site AGTGAAGCTGT) | 2.33
42 | AGTGAAGCTTGGGTTCTAACCTGTTGCAC (site CACTTCCCTTC) | 0.298
43 | AGTGAGCCTTGGGTTCTAACCTGTTGCCT (site AGTAAGCCTAG) | 0.344
44 | AGTGAGCCTTGGGTTCTAACCTGTTGCCT (site AGTCAGCCTAG) | 0.0584

Row | Sequence | recombinant barcode read abundance (log10)
45 | AGTGAGCCTTGGGTTCTAACCTGTTGCCT (site AGTGAGCCTAG) | 1.26
46 | AGTGAGCCTTGGGTTCTAACCTGTTGCCT (site AGTTAGCCTAG) | 0.0633
47 | AGTGGACCTTGGGTTCTAACCTGTTGCCC (site AGTGGACCTGG) | 1.86
48 | AGTGGACCTTGGGTTCTAACCTGTTGCCC (site TCCCATACTAT) | 0.0634
49 | AGTGGAGCTTGGGTTCTAACCTGTTGCCT (site AGGGGATCTAG) | 0.0601
50 | AGTGGAGCTTGGGTTCTAACCTGTTGCCT (site AGTGGAGCTAG) | 2.27
51 | AGTGGGACTTGGGTTCTAACCTGTTGCCA (site AGTGGGACTTG) | 1.56
52 | AGTGGGACTTGGGTTCTAACCTGTTGCCA (site GGTGAGACTTG) | 0.0594
53 | AGTTAGTCTTGGGTTCTAACCTGTTGCCA (site AGTCAGTCTTG) | 0.0961
54 | AGTTAGTCTTGGGTTCTAACCTGTTGCCA (site AGTTAGTCTTG) | 0.0604
55 | AGTTCGACTTGGGTTCTAACCTGTTGCCT (site AATTCGACTAG) | 0.0143
56 | AGTTCGACTTGGGTTCTAACCTGTTGCCT (site ACTTCGACTAG) | 0.0163
57 | AGTTCGACTTGGGTTCTAACCTGTTGCCT (site AGTTCGACTAG) | 0.429
58 | AGTTCGACTTGGGTTCTAACCTGTTGCCT (site ATTTCGACTAG) | 0.234
59 | AGTTCGCCTTGGGTTCTAACCTGTTGCTA (site AGTGCGCCTTA) | 0.317
60 | AGTTCGCCTTGGGTTCTAACCTGTTGCTA (site AGTTCGCCTTA) | 0.012
61 | AGTTGGCCTTGGGTTCTAACCTGTTGCAG (site AGTTGGCCTCT) | 0.39
62 | AGTTGGCCTTGGGTTCTAACCTGTTGCAG (site CTAACTACTAA) | 0.313
63 | AGTTGGGCTTGGGTTCTAACCTGTTGCTG (site AGCTGGGCTCC) | 0.154
64 | AGTTGGGCTTGGGTTCTAACCTGTTGCTG (site AGTTGGGCTCA) | 1.02
65 | ATAAAACCTTGGGTTCTAACCTGTTGCCT (site ATAAAACCTAG) | 1.23
66 | ATAAAACCTTGGGTTCTAACCTGTTGCCT (site CTAAAACCTAG) | 0.64

Row | Sequence | recombinant barcode read abundance (log10)
67 | ATAAAACCTTGGGTTCTAACCTGTTGCCT (site GTAAAACCTAG) | 0.114
68 | ATAAAACCTTGGGTTCTAACCTGTTGCCT (site TTAAAACCTAG) | 0.244
69 | ATAAAGCCTTGGGTTCTAACCTGTTGCCT (site ATAAAGCCTAG) | 2.05
70 | ATAAAGCCTTGGGTTCTAACCTGTTGCCT (site ATAAGGCCTAG) | 0.0177
71 | ATAAATCCTTGGGTTCTAACCTGTTGCCT (site ATAAATCCTAG) | 0.632
72 | ATAAATCCTTGGGTTCTAACCTGTTGCCT (site CTAAATCCTAG) | 0.126
73 | ATAAATCCTTGGGTTCTAACCTGTTGCCT (site GTAAATCCTAG) | 0.0609
74 | ATAAATCCTTGGGTTCTAACCTGTTGCCT (site TTAAATCCTAG) | 0.0804
75 | ATAACTACTTGGGTTCTAACCTGTTGCCA (site ATAACTACTTG) | 0.462
76 | ATAACTACTTGGGTTCTAACCTGTTGCCA (site ATGTCTACTTG) | 0.299
77 | ATACAATCTTGGGTTCTAACCTGTTGCCT (site ATACAATCTAG) | 1.13
78 | ATACAATCTTGGGTTCTAACCTGTTGCCT (site CTACAATCTAG) | 0.127
79 | ATACAATCTTGGGTTCTAACCTGTTGCCT (site GTACAATCTAG) | 0.0425
80 | ATACAATCTTGGGTTCTAACCTGTTGCCT (site TTACAATCTAG) | 0.202
81 | ATACCATCTTGGGTTCTAACCTGTTGCCT (site ATACCATCTAG) | 0.031
82 | ATACCATCTTGGGTTCTAACCTGTTGCCT (site ATCCCATCTAG) | 0.173
83 | ATACCATCTTGGGTTCTAACCTGTTGCCT (site ATGCCATCTAG) | 0.855
84 | ATACCATCTTGGGTTCTAACCTGTTGCCT (site ATTCCATCTAG) | 0.34
85 | ATACGGACTTGGGTTCTAACCTGTTGCAG (site ATACGGACTCT) | 2.77
86 | ATACGGACTTGGGTTCTAACCTGTTGCAG (site ATATGTACTCT) | 0.198

Reference: the supplement of paper PMC11208160
